Marks after values point to notes of the source that are not given here.
Experiments:
[1] = tested on: collagen; test: Sirius Red staining of collagenous proteins in pancreas of CP mice; type: in vivo, C57BL6 mice
Protocol: (§1) C57BL6 mice at age of 6 to 8 weeks with body weight in the range of 20 to 24 grams were used in these experiments. Mice were randomly assigned into 5 groups. Control group received saline injections only; Rhein group was fed with Rhein (≧98% pure) dissolved in 0.5% sodium carboxymethyl cellulose (Sigma, USA) in a single dose of 0.4 mL at 50 mg/kg/day for 6 weeks; Cerulein group received 6 cerulein injections at 50 μg/kg three times a week for 6 weeks; Cer+Rh 6w group received cerulein injections same as Cerulein group plus oral gavage of a single dose of Rhein at 50 mg/kg/day from the first day of experimental period till the end in a total of 6 weeks; Cer+Rh 3w group received cerulein injections same as Cerulein group and Cer+Rh 6w group, but was given with Rhein at 50 mg/kg/day starting the first day of week 4 till the end of experiment in a total of 3 weeks (n=6/group). Upon scarification, pancreata were immediately removed, weighed, trimmed from fat and fixed in 4% paraformaldehyde-phosphate buffered saline (PBS) overnight at 4° C. Samples were then processed, embedded in paraffin wax, sectioned and subjected to Hematoxylin-eosin (H & E) staining or Sirius Red staining Levels of TNF-α· in animal serum samples were determined using commercial ELISA kits. Proteins extracted from pancreatic tissues were subjected to Western blotting analyses.

[2] = tested on: Tgf-β1; test: Real-time PCR, TGF-β-stimulated LTC-14 cells: Tgf-β1; type: cell-based, rat; details: Rhein at 1, 10 and 100 μM; TGF-β 5 ng/mL
From the text: (§2) The synthesized cDNA template was applied to amplifications with rat-specific primers for Tgf-β1, Acta2, Col1-α1 and Mmp2 in a real-time PCR sequencer. Expression of the gene of interest was expressed as a Ct value and normalized to the internal control Gapdh. […] After amplifications by real-time PCR, expression of the gene of interest was expressed as a Ct value and normalized to the internal control Gapdh.

[3] = tested on: fibronectin 1 (FN1); test: Western blotting of fibronectin in pancreatic tissues of CP mice; type: in vivo, C57BL6 mice; details: CP mice treated with Rhein vs non-Rhein-treated CP mice
Protocol: as §1

[4] = tested on: Col1-α1; test: Real-time PCR, TGF-β-stimulated LTC-14 cells: Col1-α1; type: cell-based, rat; details: Rhein at 1, 10 and 100 μM; TGF-β 5 ng/mL
From the text: as §2

[5] = tested on: TNF-α; test: Serum TNF-α by ELISA, cerulein-induced chronic pancreatitis mice; type: in vivo, C57BL6 mice
Protocol: as §1

[6] = Pancreatic weight and H&E histology, cerulein-induced chronic pancreatitis mice; type: in vivo, C57BL6 mice
Protocol: as §1

[7] = tested on: Acta2; test: Real-time PCR, TGF-β-stimulated LTC-14 cells: Acta2; type: cell-based, rat; details: Rhein at 1, 10 and 100 μM; TGF-β 5 ng/mL
From the text: as §2

[8] = tested on: α-SMA; test: α-SMA expression in pancreatic tissues (immunofluorescence, Western blotting), cerulein-treated mice; type: in vivo, C57BL6 mice; details: Rhein oral 50 mg/kg/day for 6 weeks
Protocol: as §1

[9] = tested on: LTC-14 cells; test: TGF-β induced transformation of PSCs to myofibroblast-like cells (light microscope); type: cell-based, rat; details: TGF-β 5 ng/mL, Rhein 10 μM
Protocol: To study the effect of Rhein on TGF-β induced transformation of PSCs to myofibroblast-like cells, LTC-14 cells were grown at a density of 1×10^5 in a 24-well plate, pre-incubated with TGF-β (5 ng/mL) for 24 hours and treated with or without Rhein (10 μM). At the time of harvest, cells were examined with morphological alterations under a light microscope.

[10] = tested on: α-SMA; test: Immunofluorescence assay for α-SMA in TGF-β-stimulated LTC-14 cells; type: cell-based, rat; details: TGF-β 5 ng/mL, Rhein 10 μM
Protocol: To study the effect of Rhein on TGF-β induced expression of fibrotic filament formation, LTC-14 cells were grown on poly-L-lysine coated glass coverslips at a density of 1×10^5 in a 24-well plate pre-incubated with TGF-β (5 ng/mL) for 24 hours before the treatment with or without Rhein (10 μM). At the time of harvest, cells were subjected to immunofluorescence assay for α-SMA immunoreactivities.

[11] = tested on: Fn1; test: Expression of Fn1 in TGF-β-stimulated LTC-14 cells; type: cell-based, rat; details: recombinant TGF-β
[12] = Body weights and tolerability of mice given Rhein orally; type: in vivo, C57BL6 mice
Protocol: as §1

[13] = tested on: LTC-14 cells; type: cell-based
Protocol: LTC-14 cells were cultured at 37° C. under a humidified condition of 95% air and 5% CO2 in IMDM supplemented with 10% fetal bovine serum (FBS). Cells used in all the experiment were among passages 9 to 22. LTC-14 cells were seeded at a density of 1×10^4/well in a 96-well plate, and incubated with different concentrations of Rhein (dissolved in DMSO) for 24 hours. MTT reagent was added to the cells at the end of the 24-hour treatment period. After a 3-hour reaction time, MTT products were dissolved in DMSO and OD at 570 nm was taken.

[14] = Rhein group: 50 mg/kg/day oral for 6 weeks, no cerulein

## O=C(O)c1cc(O)c2c(c1)C(=O)c1cccc(O)c1C2=O [Rhein, 9,10-Dihydro-4,5-dihydroxy-9,10-dioxo-2-anthracenecarboxylic acid]
[1]
  amounts of collagenous protein: notably reduced
[2]
  TGF-β-elevated mRNA expression level of Tgf-β1: significantly repressed
[3]
  protein expression levels of fibronectin: remarkably decreased
[4]
  TGF-β-elevated mRNA expression level of Col1-α1: significantly repressed
[5]; Cer + Rh 3 wk: cerulein plus Rhein 50 mg/kg/day from week 4, 3 weeks
  TNF-α (ng/mL), Mean: 32.52# ng/mL
[5]; Cer + Rh 6 wk: cerulein plus Rhein 50 mg/kg/day for 6 weeks
  TNF-α (ng/mL), Mean: 31.18# ng/mL
[5]; [14]
  TNF-α (ng/mL), Mean: 14.43 ng/mL
[6]; CP mice, Rhein oral 50 mg/kg/day, H&E
  histology of pancreatic tissues (acinar loss, lymphocyte infiltration, fibrosis): less acinar loss (FIG. 1), lymphocyte infiltration and fibrosis
[6]; cerulein-induced pancreatitis mice, vs Cerulein group
  pancreatic weight: significant restoration of pancreatic weight
[7]
  TGF-β-elevated mRNA expression level of Acta2: significantly repressed
[8]
  expression of α-SMA in the pancreatic tissues: significantly inhibits
[9]
  transformation of LTC-14 cells into myofibroblast-like phenotype: represses the transformation
[10]
  α-SMA expression (immunofluorescent staining): remarkably suppresses
[11]
  TGF-β-stimulated expression level of Fn1: suppresses
[12]; Cer + Rh 3 wk: cerulein injections plus Rhein 50 mg/kg/day from week 4, 3 weeks
  Body wt (g), Mean: 24.07* g
[12]; Cer + Rh 6 wk: cerulein injections plus Rhein 50 mg/kg/day oral gavage for 6 weeks
  Body wt (g), Mean: 23.98* g
[12]; [14]
  Body wt (g), Mean: 26.10 g
[12]; oral administration, animal study
  adverse effects: no adverse effects
[13]; in vitro, dose-dependent
  PSC proliferation: suppress PSC proliferation
[13]; rat, 24 h
  LD50 (cytotoxicity): approximately 130 μM
